# Laboratory results: patent publication US20070049564A1 (Wyeth, priority 2005, published 2007)
# Read-outs that look alike come from different tables or passages of the source.
# Tests used:
# E. coli GC 2235 = test: MIC, broth microdilution; conditions: Escherichia coli
# E. faecalis GC 4555 = test: MIC, broth microdilution; conditions: Enterococcus faecalis
# E. coli GC 2236 = test: MIC, broth microdilution; conditions: Escherichia coli
# S. pyogenes GC 4563 = test: MIC, broth microdilution; conditions: Streptococcus pyogenes
# Staph. = test: Range of MIC for Staph. strains, including MRSA; conditions: Staphylococcus aureus
# E. coli GC 2233 = test: MIC, broth microdilution; conditions: Escherichia coli
# E. coli GC 3226 = test: MIC, broth microdilution; conditions: Escherichia coli
# E. faecium GC 4556 = test: MIC, broth microdilution; conditions: Enterococcus faecium
# S. typhimurium GC 2172 = test: MIC, broth microdilution; conditions: Salmonella enterica, TYPHIMURIUM
# E. faecalis GC 2265 = test: MIC, broth microdilution; conditions: Enterococcus faecalis
# Experimental: Antimicrobial susceptibility testing. The in vitro activities of the antibiotics are determined by the broth microdilution method as recommended by the National Committee for Clinical Laboratory Standards (NCCLS) (1). Mueller-Hinton II broth (MHBII)(BBL Cockeysville, Md.) is the medium employed in the testing procedures. Microtiter plates containing serial dilutions of each antimicrobial agent are inoculated with each organism to yield the appropriate density (10^5 CFU/ml) in a 100 μl final volume. The plates are incubated for 18-22 hours at 35° C. in ambient air.
# Representative compounds were first incubated in mouse serum for an hour prior to the in vitro testing against a panel of selected gram-positive and gram-negative bacteria strains. All compounds were also pre-incubated in water for an hour prior to testing as control.
# S. aureus GC 1079 = test: MIC, broth microdilution; conditions: Staphylococcus aureus
# E. coli GC 1073 = test: MIC, broth microdilution; conditions: Escherichia coli
# E. faecium GC 2243 = test: MIC, broth microdilution; conditions: Enterococcus faecium
# S. aureus GC 6335 = test: MIC, broth microdilution; conditions: Staphylococcus aureus
# E. coli GC 2271 = test: MIC, broth microdilution; conditions: Escherichia coli
# c. albicans GC 3066 = test: MIC, broth microdilution
# E. coli GC 2270 = test: MIC, broth microdilution; conditions: Escherichia coli
# S. agalactiae GC 4564 = test: MIC, broth microdilution; conditions: Streptococcus agalactiae
# S. aureus GC 6469 = test: MIC, broth microdilution; conditions: Staphylococcus aureus
compound,measurement,setting,value
"COC(=O)N(CC(=O)Nc1cc(N(C)C)c2c(c1O)C(=O)C1=C(O)[C@]3(O)C(=O)C(C(N)=O)=C(O)[C@@H](N(C)C)[C@@H]3C[C@@H]1C2)C(C)(C)C [Example 60, methyl 2-{[(5aR,6aS,7S,10aS)-9-(aminocarbonyl)-4,7-bis(dimethylamino)-1,8,10a,11-tetrahydroxy-10,12-dioxo-5,5a,6,6a,7,10,10a,12-octahydrotetracen-2-yl]amino}-2-oxoethyl(tert-butyl)carbamate]",MIC,"E. coli GC 2235; GC2235, read-out: MINIMAL INHIBITORY CONCENTRATION MIC, Human Serum",64 µg/mL
same,MIC,"E. coli GC 2235; GC2235, read-out: MINIMAL INHIBITORY CONCENTRATION MIC, Mouse Serum",64 µg/mL
same,MIC,"E. coli GC 2235; GC2235, read-out: MINIMAL INHIBITORY CONCENTRATION MIC, Water",> 64 µg/mL
same,MIC,"E. faecalis GC 4555; GC4555, read-out: MINIMAL INHIBITORY CONCENTRATION MIC, Human Serum",2 µg/mL
same,MIC,"E. faecalis GC 4555; GC4555, read-out: MINIMAL INHIBITORY CONCENTRATION MIC, Mouse Serum",4 µg/mL
same,MIC,"E. faecalis GC 4555; GC4555, read-out: MINIMAL INHIBITORY CONCENTRATION MIC, Water",4 µg/mL
same,MIC,"E. coli GC 2236; GC2236, read-out: MINIMAL INHIBITORY CONCENTRATION MIC, Human Serum",> 64 µg/mL
same,MIC,"E. coli GC 2236; GC2236, read-out: MINIMAL INHIBITORY CONCENTRATION MIC, Mouse Serum",> 64 µg/mL
same,MIC,"E. coli GC 2236; GC2236, read-out: MINIMAL INHIBITORY CONCENTRATION MIC, Water",> 64 µg/mL
same,MIC,"S. pyogenes GC 4563; GC4563, read-out: MINIMAL INHIBITORY CONCENTRATION MIC, Human Serum",0.5 µg/mL
same,MIC,"S. pyogenes GC 4563; GC4563, read-out: MINIMAL INHIBITORY CONCENTRATION MIC, Mouse Serum",1 µg/mL
same,MIC,"S. pyogenes GC 4563; GC4563, read-out: MINIMAL INHIBITORY CONCENTRATION MIC, Water",2 µg/mL
same,MIC,"Staph.; MRSA, read-out: Range of MIC, Staph (Mouse Serum)",2 to 8 µg/mL
same,MIC,"Staph.; MRSA, read-out: Range of MIC, Staph (Water)",4 to 16 µg/mL
same,MIC,"Staph.; read-out: Minimum inhibitory concentration (MIC), Staph (Human Serum)",2 to 8 µg/mL
same,MIC,"Staph.; read-out: Minimum inhibitory concentration (MIC), Staph (Water)",4 to 16 µg/mL
same,MIC,"E. coli GC 2233; GC2233, read-out: MINIMAL INHIBITORY CONCENTRATION MIC, Human Serum",> 64 µg/mL
same,MIC,"E. coli GC 2233; GC2233, read-out: MINIMAL INHIBITORY CONCENTRATION MIC, Mouse Serum",> 64 µg/mL
same,MIC,"E. coli GC 2233; GC2233, read-out: MINIMAL INHIBITORY CONCENTRATION MIC, Water",> 64 µg/mL
same,MIC,"E. coli GC 3226; GC3226, read-out: MINIMAL INHIBITORY CONCENTRATION MIC, Human Serum",> 64 µg/mL
same,MIC,"E. coli GC 3226; GC3226, read-out: MINIMAL INHIBITORY CONCENTRATION MIC, Mouse Serum",> 64 µg/mL
same,MIC,"E. coli GC 3226; GC3226, read-out: MINIMAL INHIBITORY CONCENTRATION MIC, Water",> 64 µg/mL
same,MIC,"E. faecium GC 4556; GC4556, read-out: MINIMAL INHIBITORY CONCENTRATION MIC, Human Serum",4 µg/mL
same,MIC,"E. faecium GC 4556; GC4556, read-out: MINIMAL INHIBITORY CONCENTRATION MIC, Mouse Serum",4 µg/mL
same,MIC,"E. faecium GC 4556; GC4556, read-out: MINIMAL INHIBITORY CONCENTRATION MIC, Water",4 µg/mL
same,MIC,"S. typhimurium GC 2172; read-out: MINIMAL INHIBITORY CONCENTRATION MIC, Human Serum",> 64 µg/mL
same,MIC,"S. typhimurium GC 2172; read-out: MINIMAL INHIBITORY CONCENTRATION MIC, Mouse Serum",> 64 µg/mL
same,MIC,"S. typhimurium GC 2172; read-out: MINIMAL INHIBITORY CONCENTRATION MIC, Water",> 64 µg/mL
same,MIC,"E. faecalis GC 2265; GC2265, read-out: MINIMAL INHIBITORY CONCENTRATION MIC, Human Serum",4 µg/mL
same,MIC,"E. faecalis GC 2265; GC2265, read-out: MINIMAL INHIBITORY CONCENTRATION MIC, Mouse Serum",8 µg/mL
same,MIC,"E. faecalis GC 2265; GC2265, read-out: MINIMAL INHIBITORY CONCENTRATION MIC, Water",8 µg/mL
same,MIC,"S. aureus GC 1079; GC1079, read-out: MINIMAL INHIBITORY CONCENTRATION MIC, Human Serum",2 µg/mL
same,MIC,"S. aureus GC 1079; GC1079, read-out: MINIMAL INHIBITORY CONCENTRATION MIC, Mouse Serum",2 µg/mL
same,MIC,"S. aureus GC 1079; GC1079, read-out: MINIMAL INHIBITORY CONCENTRATION MIC, Water",4 µg/mL
same,MIC,"E. coli GC 1073; GC1073, read-out: MINIMAL INHIBITORY CONCENTRATION MIC, Human Serum",> 64 µg/mL
same,MIC,"E. coli GC 1073; GC1073, read-out: MINIMAL INHIBITORY CONCENTRATION MIC, Mouse Serum",> 64 µg/mL
same,MIC,"E. coli GC 1073; GC1073, read-out: MINIMAL INHIBITORY CONCENTRATION MIC, Water",> 64 µg/mL
same,MIC,"E. faecium GC 2243; GC2243, read-out: MINIMAL INHIBITORY CONCENTRATION MIC, Human Serum",2 µg/mL
same,MIC,"E. faecium GC 2243; GC2243, read-out: MINIMAL INHIBITORY CONCENTRATION MIC, Mouse Serum",2 µg/mL
same,MIC,"E. faecium GC 2243; GC2243, read-out: MINIMAL INHIBITORY CONCENTRATION MIC, Water",4 µg/mL
same,MIC,"S. aureus GC 6335; GC6335, read-out: MINIMAL INHIBITORY CONCENTRATION MIC, Human Serum",8 µg/mL
same,MIC,"S. aureus GC 6335; GC6335, read-out: MINIMAL INHIBITORY CONCENTRATION MIC, Mouse Serum",8 µg/mL
same,MIC,"S. aureus GC 6335; GC6335, read-out: MINIMAL INHIBITORY CONCENTRATION MIC, Water",8 µg/mL
same,MIC,"E. coli GC 2271; GC2271, read-out: MINIMAL INHIBITORY CONCENTRATION MIC, Human Serum",64 µg/mL
same,MIC,"E. coli GC 2271; GC2271, read-out: MINIMAL INHIBITORY CONCENTRATION MIC, Mouse Serum",64 µg/mL
same,MIC,"E. coli GC 2271; GC2271, read-out: MINIMAL INHIBITORY CONCENTRATION MIC, Water",> 64 µg/mL
same,MIC,"c. albicans GC 3066; Candida albicans, GC3066, read-out: MINIMAL INHIBITORY CONCENTRATION MIC",> 64 µg/mL
same,MINIMAL INHIBITORY CONCENTRATION MIC,c. albicans GC 3066; Human Serum,>64 UG/ML
same,MINIMAL INHIBITORY CONCENTRATION MIC,c. albicans GC 3066; Mouse Serum,>64 UG/ML
same,MIC,"E. coli GC 2270; GC2270, read-out: MINIMAL INHIBITORY CONCENTRATION MIC, Human Serum",> 64 µg/mL
same,MIC,"E. coli GC 2270; GC2270, read-out: MINIMAL INHIBITORY CONCENTRATION MIC, Mouse Serum",> 64 µg/mL
same,MIC,"E. coli GC 2270; GC2270, read-out: MINIMAL INHIBITORY CONCENTRATION MIC, Water",> 64 µg/mL
same,MIC,"S. agalactiae GC 4564; GC4564, read-out: MINIMAL INHIBITORY CONCENTRATION MIC, Human Serum",4 µg/mL
same,MIC,"S. agalactiae GC 4564; GC4564, read-out: MINIMAL INHIBITORY CONCENTRATION MIC, Mouse Serum",4 µg/mL
same,MIC,"S. agalactiae GC 4564; GC4564, read-out: MINIMAL INHIBITORY CONCENTRATION MIC, Water",4 µg/mL
same,MIC,"S. aureus GC 6469; GC6469, read-out: MINIMAL INHIBITORY CONCENTRATION MIC, Human Serum",2 µg/mL
same,MIC,"S. aureus GC 6469; GC6469, read-out: MINIMAL INHIBITORY CONCENTRATION MIC, Mouse Serum",2 µg/mL
same,MIC,"S. aureus GC 6469; GC6469, read-out: MINIMAL INHIBITORY CONCENTRATION MIC, Water",4 µg/mL
